From PMC8348161, “Cardiolipin-Containing Lipid Membranes Attract the Bacterial Cell Division Protein DivIVA” (International Journal of Molecular Sciences, 2021)

Target: T1, DivIVACd (Clostridioides difficile, UniProt Q182V3)
T1 construct: gene CD630_26190; full length, untagged (pET-26b) or His-SUMO tag cut by Ulp1 without extra residues; E. coli BL21(DE3)pLysS; forms large polymers
T1 sequence (Q182V3 1-175): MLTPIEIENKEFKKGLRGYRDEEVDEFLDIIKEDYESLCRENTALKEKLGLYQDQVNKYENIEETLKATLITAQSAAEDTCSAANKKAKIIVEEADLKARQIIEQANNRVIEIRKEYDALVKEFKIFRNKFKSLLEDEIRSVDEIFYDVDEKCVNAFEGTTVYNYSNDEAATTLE
Experiment: QCM-D, protein titrated over supported lipid bilayer, Hill fit
Format: binding
Conditions: 5% CL in mixed bilayer (65% DOPC, 30% DOPG, 5% TOCL); protein concentration scale; Hill coefficient 1.0; pH 7.4, 250 mM KCl, 5 mM MgCl2, 23 °C

Question: Which Kd does the source give for CCCCCCCC/C=C\CCCCCCCC(=O)OC[C@H](COP(=O)(O)OCC(O)COP(=O)(O)OC[C@@H](COC(=O)CCCCCCC/C=C\CCCCCCCC)OC(=O)CCCCCCC/C=C\CCCCCCCC)OC(=O)CCCCCCC/C=C\CCCCCCCC (stereo partly shown) [TOCL, 1,3-bis[1,2-dioleoyl-sn-glycero-3-phospho]-glycerol] here?
Answer: The Kd was 1.3 µM.
